According to patent US20240067660A1, “MACROCYCLIC SPIROCYCLE DERIVATIVES AS MCL-1 INHIBITORS” (Janssen Pharmaceutica NV, priority 2019, published 2024):
Like-named read-outs stand apart in the source and are kept apart here.

Tests used:
[1] = system: MOLP-8 human multiple myeloma cell line; experiment: Caspase-Glo 3/7 assay in MOLP-8 cells; assay type: cell-based; details: Caspase-Glo 3/7, 2 hours incubation, averaged over all runs on all batches, read-out: MOLP8 AC50
Description: (§1) MCL-1 is a regulator of apoptosis and is highly over-expressed in tumor cells that escape cell death. The assay evaluates the cellular potency of small-molecule compounds targeting regulators of the apoptosis pathway, primarily MCL-1, Bfl-1, Bcl-2, and other proteins of the Bcl-2 family. Protein-protein inhibitors disrupting the interaction of anti-apoptotic regulators with BH3-domain proteins initiate apoptosis.
The Caspase-Glo® 3/7 Assay is a luminescent assay that measures caspase-3 and -7 activities in purified enzyme preparations or cultures of adherent or suspension cells. The assay provides a proluminescent caspase-3/7 substrate, which contains the tetrapeptide sequence DEVD. This substrate is cleaved to release aminoluciferin, a substrate of luciferase used in the production of light. Addition of the single Caspase-Glo® 3/7 Reagent in an “add-mix-measure” format results in cell lysis, followed by caspase cleavage of the substrate and generation of a “glow-type” luminescent signal.
This assay uses the MOLP-8 human multiple myeloma cell line, which is sensitive to MCL-1 inhibition.
Cell cultures were maintained between 0.2 and 2.0×10^6 cells/mL. The cells were harvested by collection in 50 mL conical tubes. The cells were then pelleted at 500 g for 5 mins before removing supernatant and resuspension in fresh pre-warmed culture medium. The cells were counted and diluted as needed.
The assay reagent was prepared by transferring the buffer solution to the substrate vial and mixing. The solution may be stored for up to 1 week at 4° C. with negligible loss of signal.
Compounds were delivered in assay-ready plates (Proxiplate) and stored at −20° C. Assays always include 1 reference compound plate containing reference compounds. The plates were spotted with 40 nL of compounds (0.5% DMSO final in cells; serial dilution; 30 μM highest conc. 1/3 dilution, 10 doses, duplicates). The compounds were used at room temperature and 4 μL of pre-warmed media was added to all wells except column 2 and 23. The negative control was prepared by adding 1% DMSO in media. The positive control was prepared by adding the appropriate positive control compound in final concentration of 60 μM in media. The plate was prepared by adding 4 μL negative control to column 23, 4 μL positive control to column 2 and 4 μL cell suspension to all wells in the plate. The plate with cells was then incubated at 37° C. for 2 hours. The assay signal reagent is the Caspase-Glo solution described above, and 8 μL was added to all wells. The plates were then sealed and measured after 30 minutes.
The activity of a test compound was calculated as percent change in apoptosis induction as follows: […]

[2] = system: MOLP8 cells; experiment: MOLP8 CellEvent Caspase-3/7 Green IncuCyte live-cell apoptosis assay; assay type: cell-based, human
Description: as §1
Activation of the apoptotic pathway was measured using the CellEvent™ Caspase-3/7 Green ReadyProbes™ Reagent (Thermo Fisher C10423, C10723). This assay produces a green fluorescent stain in cells that enter the apoptosis pathway. CellEvent® Caspase-3/7 Green reagent is a four amino acid peptide (DEVD) conjugated to a nucleic acid-binding dye that is non-fluorescent when not bound to DNA. The CellEvent® Caspase-3/7 Green reagent is intrinsically non-fluorescent, as the DEVD peptide inhibits binding of the dye to DNA. Upon activation of caspase-3/7 in apoptotic cells, the DEVD peptide is cleaved and the free dye can bind DNA, generating a bright green fluorescence. The activation of Caspase-3 and Caspase-7 is downstream of inhibition of MCL-1 or other apoptosis inhibiting proteins in cell lines that are dependent on them.
The live-cell readout on the IncuCyte permits tracking over time of the Caspase activation. […] The IncuCyte readout also allows one to normalize for cell number, as the suspension cells are hard to distribute evenly.
Signals were measured every 2 h for a duration of 22 h. The ratio of the Caspase mask to the Confluence mask, per image, as raw data, was calculated and the kinetic trace for every well was exported to Genedata Screener for analysis.
In Genedata Screener values for 6 h, 12 h, and 22 h from the kinetic traces were extracted. The values were normalized against negative controls (untreated cells). A standard dose-response analysis was performed on the normalized data.
The following data was reported at each of the following three aforementioned time points: (a) The dose-response curve, (b) The qAC50 and qAC50 Mode, and (c) Max Activity.
Cells were maintained in culture medium containing 10% Heat Inactivated (HI) FBS, 2 mM L-Glutamine and 50 μg/mL Gentamycin phenol red free RPMI-1640. Cells were split at 0.4 million/mL twice a week.
On Day 1, plates containing individual wells with test compounds at 10 mM concentration, 150 nL per well. The final concentrations range from […] compound (and no compound control) and compounds were thawed at room temperature for 1 hour. 25 μl of prewarmed medium was added into each well by multidrop (column 1, 3-22, 24), followed by addition of DMSO control (0.6% DMSO) in column 2. The plate was sealed using Breathe-Easy® sealing membrane and shaken for 30 min at room temperature to dissolve the test compound(s) in medium. The plate was then kept in the incubator for 1 hour at 37° C., 5% CO2.
MOLP8 cells in medium at […] (20000/50 μl final in assay) were prepared with CellEvent™ Caspase-3/7 Green Detection Reagent at 4 μM (2 μM final in assay). Once prepared, the cells were added to the test compound plate in an amount of 20000 and the plate was immediately placed in the IncuCyte and imaging started using following settings: 10× objective, 2 s exposure time in green channel, interval of 2 h, acquisition stopped after 22 h.
For analysis in IncuCyte, a Basic Analysis protocol was defined to calculate the “confluence” and “caspase” areas from the “Phase” and “green” images, respectively, as follows: (a) Confluence: Segmentation Adjustment 1, Hole Fill 0, Adjust Size −2, No filters (b) Caspase: Top-Hat segmentation, Radius 10, Threshold 0.3 GCU, Edge Split On with sensitivity 0, Hole Fill 0, Adjust Size 1, and filter on a minimum Area of 20 μm^2. The analyzer is trained on a sufficient number of positive and negative control wells, as well as compound treated wells, verifying that the “confluence” layer detects both live and dead (condensed) cells. […]

[3] = Homo sapiens, MOLP-8, 6 h, 6 h, read-out: MOLP8 Caspase 3/7 AC50 at 6 h
[4] = Homo sapiens, MOLP-8, 12 h, 12 h, read-out: MOLP8 Caspase 3/7 AC50 at 12 h
[5] = Homo sapiens, MOLP-8, 22 h, 22 h, read-out: MOLP8 Caspase 3/7 AC50 at 22 h

SMILES | AC50 ([1]; Homo sapiens, MOLP-8, 2 h) [µM] | AC50 [2, 3] [µM] | AC50 [2, 4] [µM] | AC50 [2, 5] [µM] | AC50 [1] [µM] | AC50 ([2]; 6 h, read-out: MOLP8 Caspase 3/7 AC50 at 6 h) [µM] | AC50 ([2]; 12 h, read-out: MOLP8 Caspase 3/7 AC50 at 12 h) [µM] | AC50 ([2]; 22 h, read-out: MOLP8 Caspase 3/7 AC50 at 22 h) [µM]
COC[C@@H]1/C=C/C[C@@H](C)[C@@H](C)S(=O)(=O)NC(=O)c2ccc3c(c2)N(C[C@@H]2CCN21)C[C@@]1(CCCc2cc(Cl)ccc21)CO3 [Compound 7] | 0.852 | 2.16 | 1.72 | 1.9 |  |  |  | 
Cc1nc(COC[C@H]2/C(F)=C/C[C@H](C)[C@@H](C)S(=O)(=O)NC(=O)c3ccc4c(c3)N(C[C@@H]3CCN32)C[C@@]2(CCCc3cc(Cl)ccc32)CO4)no1 [Compound 24] | 0.234 | 0.39 | 0.41 | 0.4 |  |  |  | 
C[C@@H]1[C@@H](C)C/C=C(\F)[C@H](COCC(=O)N2CC(F)(F)C2)N2CC[C@H]2CN2C[C@@]3(CCCc4cc(Cl)ccc43)COc3ccc(cc32)C(=O)NS1(=O)=O [Compound 19] | 0.302 | 0.39 | 0.4 | 0.43 |  |  |  | 
C[C@@H]1[C@@H](C)C/C=C(\F)[C@H](COc2ccccn2)N2CC[C@H]2CN2C[C@@]3(CCCc4cc(Cl)ccc43)COc3ccc(cc32)C(=O)NS1(=O)=O [Compound 11] | 1.49 | 2.38 | 2.32 | 2.52 |  |  |  | 
C[C@@H]1[C@@H](C)C/C=C(\F)[C@H](COCC2CCC2)N2CC[C@H]2CN2C[C@@]3(CCCc4cc(Cl)ccc43)COc3ccc(cc32)C(=O)NS1(=O)=O [Compound 26] | 2.52 | 3.54 | 3.57 | 3.06 |  |  |  | 
CCOC[C@H]1/C(F)=C/C[C@H](C)[C@@H](C)S(=O)(=O)NC(=O)c2ccc3c(c2)N(C[C@@H]2CCN21)C[C@@]1(CCCc2cc(Cl)ccc21)CO3 [Compound 16] | 0.207 | 0.45 | 0.45 | 0.48 |  |  |  | 
C[C@@H]1[C@@H](C)C/C=C(\F)[C@H](COCCCN2CCOCC2)N2CC[C@H]2CN2C[C@@]3(CCCc4cc(Cl)ccc43)COc3ccc(cc32)C(=O)NS1(=O)=O [Compound 25] | 0.231 | 0.36 | 0.36 | 0.36 |  |  |  | 
COCCCOC[C@H]1/C(F)=C/C[C@H](C)[C@@H](C)S(=O)(=O)NC(=O)c2ccc3c(c2)N(C[C@@H]2CCN21)C[C@@]1(CCCc2cc(Cl)ccc21)CO3 [Compound 22] | 0.274 | 0.55 | 0.57 | 0.62 |  |  |  | 
C[C@@H]1[C@@H](C)C/C=C(\F)[C@H](COCC(=O)N2CCOCC2)N2CC[C@H]2CN2C[C@@]3(CCCc4cc(Cl)ccc43)COc3ccc(cc32)C(=O)NS1(=O)=O [Compound 18] | 0.448 | 0.66 | 0.57 | 0.6 |  |  |  | 
COC[C@H]1/C(F)=C/C[C@H](C)[C@@H](C)S(=O)(=O)NC(=O)c2ccc3c(c2)N(C[C@@H]2CCN21)C[C@@]1(CCCc2cc(Cl)ccc21)CO3 [Compound 13] | 0.181 | 0.52 | 0.53 | 0.56 |  |  |  | 
C[C@@H]1[C@@H](C)C/C=C/C(CO)N2CC[C@H]2CN2C[C@@]3(CCCc4cc(Cl)ccc43)COc3ccc(cc32)C(=O)NS1(=O)=O (single isomer, unassigned) [Compound 10] | 1.49 | 3.07 | 3.24 | 3.43 |  |  |  | 
C[C@@H]1[C@@H](C)C/C=C(\F)[C@H](COCCC2CCOCC2)N2CC[C@H]2CN2C[C@@]3(CCCc4cc(Cl)ccc43)COc3ccc(cc32)C(=O)NS1(=O)=O [Compound 23] | 0.545 | 1.11 | 1.04 | 1.15 |  |  |  | 
C[C@@H]1[C@@H](C)C/C=C(\F)[C@H](CF)N2CC[C@H]2CN2C[C@@]3(CCCc4cc(Cl)ccc43)COc3ccc(cc32)C(=O)NS1(=O)=O [Compound 31] | 0.512 | 1.09 | 0.9 | 0.94 |  |  |  | 
C[C@@H]1[C@@H](C)C/C=C(\F)[C@H](COc2ccccn2)N2CC[C@@H]2CN2C[C@@]3(CCCc4cc(Cl)ccc43)COc3ccc(cc32)C(=O)NS1(=O)=O [Compound 12] |  |  |  |  | 0.52 | 1.22 | 1.12 | 1.33
COC[C@H]1/C=C/C[C@@H](C)[C@@H](C)S(=O)(=O)NC(=O)c2ccc3c(c2)N(C[C@@H]2CCN21)C[C@@]1(CCCc2cc(Cl)ccc21)CO3 [Compound 4] | 0.74 | ~1.31 | 1.2 | ~1.38 |  |  |  | 
CC(C)COC[C@H]1/C(F)=C/C[C@H](C)[C@@H](C)S(=O)(=O)NC(=O)c2ccc3c(c2)N(C[C@@H]2CCN21)C[C@@]1(CCCc2cc(Cl)ccc21)CO3 [Compound 15] | 1.86 | 2.43 | 2.4 | 2.42 |  |  |  | 
C[C@@H]1[C@@H](C)C/C=C(\F)[C@H](CO)N2CC[C@H]2CN2C[C@@]3(CCCc4cc(Cl)ccc43)COc3ccc(cc32)C(=O)NS1(=O)=O [Compound 9] | 0.144 | 0.4 | 0.4 | 0.4 |  |  |  | 
C[C@@H]1[C@@H](C)C/C=C(\F)[C@H](COCC(=O)O)N2CC[C@H]2CN2C[C@@]3(CCCc4cc(Cl)ccc43)COc3ccc(cc32)C(=O)NS1(=O)=O [Compound 17] | 5.99 | 11.1 | 10 | 9.61 |  |  |  | 
COCC1/C=C/C[C@H](C)[C@@H](C)S(=O)(=O)NC(=O)c2ccc3c(c2)N(C[C@@H]2CCCN12)C[C@@]1(CCCc2cc(Cl)ccc21)CO3 (single isomer, unassigned) [Compound 8] | 1.33 | 2.39 | 2.49 | 2.84 |  |  |  | 
